Values of other authors as cited in patent US20090137457A1, “Pyrimidinedione derivatives” (CoNCERT Pharmaceuticals, Inc., priority 2007, published 2009).

Conditions: Phase I and II clinical trials; Christopher R et al., ADA 2007 (Abs 0495-P)

## Cn1c(=O)cc(N2CCC[C@@H](N)C2)n(Cc2ccccc2C#N)c1=O [Alogliptin]
  tolerability in clinical trials: generally well tolerated
